Data published in publication PMC3314654, “Characterization of Rhodamine-123 as a Tracer Dye for Use In In vitro Drug Transport Assays” (PLoS ONE, 2012).

What was measured:
ABCB1 (MDR1) = ABCB1 (MDR1) (Homo sapiens, UniProt P08183); test: R123 efflux from MDCKII-ABCB1 versus naive MDCKII cells (Km); type: cell-based; details: mdck
OATP1A2 = molecular target: T1, OATP1A2 (Homo sapiens, UniProt P46721); test: R123 uptake in BacMam-transduced HEK293-MSRII cells (Km); type: cell-based
T1 construct: gene SLCO1A2
T1 sequence (P46721 1-670): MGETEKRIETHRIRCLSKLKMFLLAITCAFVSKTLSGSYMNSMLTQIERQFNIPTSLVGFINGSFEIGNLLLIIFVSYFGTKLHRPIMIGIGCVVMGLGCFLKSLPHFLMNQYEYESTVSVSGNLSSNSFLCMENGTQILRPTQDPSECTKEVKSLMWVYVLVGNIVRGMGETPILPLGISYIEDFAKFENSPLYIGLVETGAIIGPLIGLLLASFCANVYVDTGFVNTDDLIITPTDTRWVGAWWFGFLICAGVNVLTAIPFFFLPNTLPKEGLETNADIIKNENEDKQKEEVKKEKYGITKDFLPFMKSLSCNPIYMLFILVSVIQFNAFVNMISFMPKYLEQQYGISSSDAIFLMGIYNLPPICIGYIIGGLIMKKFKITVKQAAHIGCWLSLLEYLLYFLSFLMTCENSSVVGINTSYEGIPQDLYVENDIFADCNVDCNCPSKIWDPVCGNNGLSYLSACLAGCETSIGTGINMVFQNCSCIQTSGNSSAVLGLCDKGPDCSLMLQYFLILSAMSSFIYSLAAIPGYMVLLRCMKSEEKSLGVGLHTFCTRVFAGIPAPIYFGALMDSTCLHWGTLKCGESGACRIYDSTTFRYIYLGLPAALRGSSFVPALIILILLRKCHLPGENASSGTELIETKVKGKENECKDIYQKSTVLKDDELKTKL

Chain of ABCB1 (MDR1) (P08183 whole entry): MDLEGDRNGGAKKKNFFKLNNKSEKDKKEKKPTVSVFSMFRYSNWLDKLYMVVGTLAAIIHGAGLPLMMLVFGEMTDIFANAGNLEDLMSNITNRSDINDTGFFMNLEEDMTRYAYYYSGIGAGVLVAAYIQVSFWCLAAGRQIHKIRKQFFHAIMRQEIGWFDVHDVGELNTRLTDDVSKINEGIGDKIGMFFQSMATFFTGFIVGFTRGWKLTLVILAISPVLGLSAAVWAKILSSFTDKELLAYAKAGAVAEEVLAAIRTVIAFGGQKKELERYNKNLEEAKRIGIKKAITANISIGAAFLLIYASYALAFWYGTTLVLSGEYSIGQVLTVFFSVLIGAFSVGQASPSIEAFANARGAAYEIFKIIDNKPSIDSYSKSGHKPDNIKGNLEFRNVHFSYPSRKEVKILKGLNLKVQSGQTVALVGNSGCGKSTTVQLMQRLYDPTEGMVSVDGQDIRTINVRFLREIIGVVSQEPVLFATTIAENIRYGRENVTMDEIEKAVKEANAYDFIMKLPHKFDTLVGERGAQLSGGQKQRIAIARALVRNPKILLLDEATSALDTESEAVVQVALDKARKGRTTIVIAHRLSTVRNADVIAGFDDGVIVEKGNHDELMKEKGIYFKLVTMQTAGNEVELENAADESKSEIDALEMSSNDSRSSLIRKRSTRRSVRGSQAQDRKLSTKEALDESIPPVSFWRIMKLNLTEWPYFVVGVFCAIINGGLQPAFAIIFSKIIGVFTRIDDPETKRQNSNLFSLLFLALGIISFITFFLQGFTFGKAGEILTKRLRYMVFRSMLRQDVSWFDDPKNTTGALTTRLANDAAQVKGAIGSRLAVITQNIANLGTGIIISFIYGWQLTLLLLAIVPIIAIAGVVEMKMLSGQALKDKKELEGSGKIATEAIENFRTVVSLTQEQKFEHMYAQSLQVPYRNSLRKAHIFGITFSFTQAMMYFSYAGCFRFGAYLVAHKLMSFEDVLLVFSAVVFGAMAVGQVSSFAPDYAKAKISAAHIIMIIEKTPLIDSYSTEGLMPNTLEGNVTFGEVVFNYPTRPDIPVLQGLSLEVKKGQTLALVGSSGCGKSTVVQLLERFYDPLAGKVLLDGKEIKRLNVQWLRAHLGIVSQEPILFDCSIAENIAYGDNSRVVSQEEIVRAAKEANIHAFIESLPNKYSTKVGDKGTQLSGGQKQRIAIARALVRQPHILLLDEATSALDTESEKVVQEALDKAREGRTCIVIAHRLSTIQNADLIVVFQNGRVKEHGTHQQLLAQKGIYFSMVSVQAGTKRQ

COC(=O)c1ccccc1-c1c2ccc(=N)cc-2oc2cc(N)ccc12 [R123, Rhodamine 123]
Km (ABCB1 (MDR1)): 17.5 ± 2.8 µM
Km (OATP1A2): 0.3 ± 0.1 µM
